Experimental data reported in patent US7488756B2, “Use of non-competitive and selective GluR5 antagonists as glutamate receptor modulating compounds” (Neurosearch A/S, priority 2001, dated 2009).

What was measured:
GluR5 receptor [1] = biological target: T1, GluR5 receptor (Homo sapiens, UniProt P39086); test: Functional GluR5 assay: inhibition of domoate-induced increase in intracellular free calcium (FLIPR, Fluo-4); type: cell-based; conditions: for IC50: HEK293 cells stably expressing un-edited GluR5, inhibition of 2 μM domoate-induced Cai elevation
T1 construct: expressed in transfected cells; host or cells: HEK293
T1 sequence (P39086 31-918): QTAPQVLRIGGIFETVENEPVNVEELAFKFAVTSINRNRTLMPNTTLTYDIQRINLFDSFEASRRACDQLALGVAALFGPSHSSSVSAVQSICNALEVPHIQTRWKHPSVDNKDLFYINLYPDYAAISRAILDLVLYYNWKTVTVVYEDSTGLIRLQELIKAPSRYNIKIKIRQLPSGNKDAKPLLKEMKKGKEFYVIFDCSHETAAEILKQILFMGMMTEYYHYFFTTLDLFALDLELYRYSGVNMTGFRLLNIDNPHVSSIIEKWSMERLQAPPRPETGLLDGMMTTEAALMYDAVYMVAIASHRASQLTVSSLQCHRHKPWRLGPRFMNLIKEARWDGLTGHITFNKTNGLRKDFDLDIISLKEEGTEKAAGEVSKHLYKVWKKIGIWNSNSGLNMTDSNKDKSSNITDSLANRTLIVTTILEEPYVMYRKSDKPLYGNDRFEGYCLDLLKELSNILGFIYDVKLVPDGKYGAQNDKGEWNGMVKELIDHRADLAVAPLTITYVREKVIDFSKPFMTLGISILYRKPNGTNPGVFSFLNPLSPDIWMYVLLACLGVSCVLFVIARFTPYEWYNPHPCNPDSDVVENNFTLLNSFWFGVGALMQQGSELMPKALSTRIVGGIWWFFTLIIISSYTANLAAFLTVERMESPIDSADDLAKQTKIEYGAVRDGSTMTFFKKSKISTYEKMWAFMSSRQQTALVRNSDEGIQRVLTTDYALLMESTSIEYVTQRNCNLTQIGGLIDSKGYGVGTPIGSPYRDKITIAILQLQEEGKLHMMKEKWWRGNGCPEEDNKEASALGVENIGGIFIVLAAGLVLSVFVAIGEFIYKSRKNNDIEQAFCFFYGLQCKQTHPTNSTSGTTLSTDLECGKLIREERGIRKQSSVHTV
Source text: (§1) In this example the inhibition of domoate-induced increase in intracellular free calcium concentration (Cai) is used as a measure for glutamate antagonist activity of test substances. Domoate is a close analog of kainite, and a potent glutamate agonist.
(§2) Human embryonic HEK293 cells stably expressing GluR5 receptors and GluR6 receptors, respectively, in their un-edited forms, are used.
In this example the activity of Compound A of the invention (5-carboxyl-2,4-di-benzamido-benzoic acid), obtained according to Ueda & Imai [Ueda M & Imai Y: Synthesis of polyamides by ring-opening polyaddition of bis-3,1-benzoxazin-4-ones with aliphatic diamines; J. Polym. Sci. 1979 17 (4) 1163-1173], is compared to the action of ATPA, a GluR5 receptor agonist, and CNQX, a GluR5 receptor antagonist that inhibits the activity of the agonist.
(§3) Fluorometric methods for measuring Cai have been developed [see e.g. Tsien et al., J. Cell. Biol. 1982 94 325]. The calcium-chelating fluorochromes (tetracarboxylic acids) are loaded into the cells as acetoxymethyl esters and subsequently released by unspecific intracellular esterase's. The free acids, which are impermeable to the cell membrane, are maintained in the cell for hours. The fluorescence spectrum (either EXmax, EMmax or both) is changed by the binding of calcium. The fluorescence is then directly proportional to the Cai.
(§4) The present method uses the fluorochromes Fluo-3 or Fluo-4 as the calcium-chelator. Fluo-3/Fluo-4 is virtually nonfluorescent without calcium but the calcium-Fluo-3/Fluo-4 complexes show a bright fluorescence (EMmax=526 nm) after excitation around 500 nm (EXmax=505 nm). This fluorescence spectrum is similar to the spectrum of fluorescein. Since excitation and emission is in the visible light region of the spectrum standard equipment without quarts optics may be used.
The HEK293 cells stably expressing GluR5 or GluR6 expressing are grown in Dulbecco's Modified Eagle Medium (DMEM) containing 10% foetal calf serum, in polystyrene culture flasks (175 cm^2) in a humidified atmosphere of 5% CO2 in air, at 37° C. Confluency of cells should be 80-90% on day of plating. GluR5 or GluR6 cells are rinsed with 10 ml of phosphate buffered saline (PBS), then added 1.5 ml of Trypsin-EDTA and left in the incubator for 5 min. After addition of 10 ml of growth media, cells are resuspended by trituration with a 10 ml pipette 15 times. […]
(§5) After the loading period, the loading media is aspirated and the cells are washed twice with 100 μl Na^+ free Ringer solution (NN: 10 mM HEPES, 140 mM Choline chloride, 5 mM KCl, 1 mM MgCl2, 10 mM CaCl2, pH 7.4) to remove extracellular dye. 100 μl NN is added to each well, and the fluorescence is measured in the FLIPR (Fluorescence Image Plate Reader). […]

GluR6 receptors = biological target: T2, GluR6 receptors (Homo sapiens, UniProt Q13002); test: Functional GluR6 assay: inhibition of domoate-induced increase in intracellular free calcium (FLIPR, Fluo-4); type: cell-based; conditions: for IC50: HEK293 cells stably expressing un-edited GluR6, inhibition of 2 μM domoate-induced Cai elevation
T2 construct: expressed in transfected cells; host or cells: HEK293
T2 sequence (Q13002 32-908): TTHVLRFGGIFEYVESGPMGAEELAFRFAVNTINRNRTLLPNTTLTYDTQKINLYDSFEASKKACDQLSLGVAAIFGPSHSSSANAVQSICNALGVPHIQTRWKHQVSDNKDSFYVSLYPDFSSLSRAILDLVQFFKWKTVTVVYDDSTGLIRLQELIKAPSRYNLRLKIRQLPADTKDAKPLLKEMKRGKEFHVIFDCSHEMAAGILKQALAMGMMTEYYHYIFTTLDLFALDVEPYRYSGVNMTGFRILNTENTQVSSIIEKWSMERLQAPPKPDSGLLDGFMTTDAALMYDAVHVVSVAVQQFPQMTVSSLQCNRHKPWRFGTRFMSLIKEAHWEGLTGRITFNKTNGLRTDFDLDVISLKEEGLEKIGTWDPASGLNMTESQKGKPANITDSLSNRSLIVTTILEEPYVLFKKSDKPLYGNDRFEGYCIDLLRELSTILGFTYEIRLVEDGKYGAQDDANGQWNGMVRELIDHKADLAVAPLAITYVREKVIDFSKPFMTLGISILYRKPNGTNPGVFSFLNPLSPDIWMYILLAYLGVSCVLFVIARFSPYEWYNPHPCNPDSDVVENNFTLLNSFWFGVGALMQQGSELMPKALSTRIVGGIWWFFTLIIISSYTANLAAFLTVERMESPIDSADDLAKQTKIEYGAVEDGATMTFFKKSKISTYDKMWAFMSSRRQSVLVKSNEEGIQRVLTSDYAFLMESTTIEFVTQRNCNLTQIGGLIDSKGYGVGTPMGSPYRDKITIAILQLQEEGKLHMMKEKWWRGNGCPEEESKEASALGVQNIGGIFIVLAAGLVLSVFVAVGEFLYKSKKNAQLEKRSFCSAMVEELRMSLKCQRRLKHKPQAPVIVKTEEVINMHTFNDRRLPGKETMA
Source text: as §1, §2, §3, §4
The HEK293 cells stably expressing GluR5 or GluR6 expressing are grown in Dulbecco's Modified Eagle Medium (DMEM) containing 10% foetal calf serum, in polystyrene culture flasks (175 cm^2) in a humidified atmosphere of 5% CO2 in air, at 37° C. Confluency of cells should be 80-90% on day of plating. GluR5 or GluR6 cells are rinsed with 10 ml of phosphate buffered saline (PBS), then added 1.5 ml of Trypsin-EDTA and left in the incubator for 5 min. After addition of 10 ml of growth media, cells are resuspended by trituration with a 10 ml pipette 15 times.
The cells are seeded at a density of 0.5-1×10^6 cells/ml (100 μl/well) in black-walled, clear bottom, 96-well plates pre-treated with 0.001% PEI solution (75 μl/well for ≧30 min). Plated cells were allowed to proliferate for 24 h before loading with dye.
Fluo-4-AM (1 mg; Molecular Probes) is added 912 μl DMSO containing 25 mg/150 μl Pluoronic F-127 (Molecular Probes). […]
as §5
Reading intervals: preincubation—10 sec.×7 and 3 sec.×3 antagonist phase—3 sec.×17 and 10 sec.×12 […]

GluR5 receptor [2] = biological target: T1, GluR5 receptor; test: GluR5 binding assay: displacement of 3H-ATPA from membranes of HEK293 cells expressing GluR5
Description: The amount of radioactivity on the filters is determined by conventional liquid scintillation counting. Specific binding is total binding minus non-specific binding.

GluR5 receptor [3] = biological target: T1, GluR5 receptor; conditions: Clarke et al., Nature 1997 389 599-603; read-out: Kd of binding to the GluR5 receptor; cited from earlier work
[4] = inhibition of specific binding of 3 nM 3H-ATPA, HEK293 GluR5 cell membranes, 60 minutes at 2° C., read-out: GluR5 Binding IC50

O=C(Nc1cc(NC(=O)c2ccccc2)c(C(=O)O)cc1C(=O)O)c1ccccc1 [Compound A, 5-carboxyl-2,4-di-benzamido-benzoic acid]
IC50 (GluR5 receptor [1]): 1900 nM | Mode of action at the GluR5 receptor (GluR5 receptor [1]; conclusion from functional activity without binding (Table 1)): non-competitive antagonist of the GluR5 receptor | IC50 (GluR6 receptors): > 30 µM | Selectivity GluR5 over GluR6 (GluR6 receptors; conclusion from functional GluR5 and GluR6 data (Table 1)): activity only at the GluR5 receptor, not at the GluR6 receptor | IC50 (GluR5 receptor [2]; [4]): > 10000 nM

CC(C)(C)c1onc(O)c1CC(N)C(=O)O (stereo not drawn) [ATPA, 2-amino-3-(3-hydroxy-5-tert-butylisoxazol-4-yl)propionic acid]
IC50 (GluR5 receptor [1]): 700 nM | IC50 (GluR6 receptors): > 30 µM | IC50 (GluR5 receptor [2]): 24 nM | Kd (GluR5 receptor [3]): 4.3 nM

N#Cc1cc2[nH]c(=O)c(=O)[nH]c2cc1[N+](=O)[O-] [CNQX]
IC50 (GluR5 receptor [1]): 3300 nM | IC50 (GluR6 receptors): 7.6 µM | IC50 (GluR5 receptor [2]; [4]): 720 nM
